Test results: patent EP3959993B1, “METHOD FOR SOLVENT FREE PRODUCTION OF AROMA CONCENTRATES” (Symrise AG, priority 2020, dated 2022)

Columns and labels:
[1] = Influence of the amount of NaCl on the distribution between oil phase and water phase (Example 5); format: physicochemical
[2] = Second oil phase obtained by adding NaCl to the water phase (Example 4); format: physicochemical; conditions: after separating oil phases I and II
Procedure: Cross linked polystyrene was used as adsorbent material. The volume flux for loading the adsorbent was 300 ml/min.
The adsorbent was heated to 150 °C, the temperature of the applied water steam was 160 °C.
The water steam flux was 10 g/min and was applied for 100 min.
The oil and water phases were separated.
A second oil phase was separated and was collected.

| Distribution in [%] between oil phase and water phase after condensation: Oil phase ([1]; NaCl 0%) | Distribution in [%] between oil phase and water phase after condensation: Water phase ([1]; NaCl 0%) | Distribution in [%] between oil phase and water phase after condensation: Oil phase ([1]; NaCl 27.8 %) | Distribution in [%] between oil phase and water phase after condensation: Water phase ([1]; NaCl 27.8 %) | Distribution in [%] between oil phase and water phase after condensation: Oil phase ([1]; NaCl 41.67%) | Distribution in [%] between oil phase and water phase after condensation: Water phase ([1]; NaCl 41.67%) | Distribution in [%] between oil phase and water phase after condensation: Oil phase ([1]; NaCl 55.56 %) | Distribution in [%] between oil phase and water phase after condensation: Water phase ([1]; NaCl 55.56 %) | Distribution in [%] between oil phase and water phase after condensation: Oil phase ([1]; NaCl 69.44 %) | Distribution in [%] between oil phase and water phase after condensation: Water phase ([1]; NaCl 69.44 %) | Distribution in [%] between oil phase and water phase after condensation: Oil phase ([1]; NaCl 83.33 %) | Distribution in [%] between oil phase and water phase after condensation: Water phase ([1]; NaCl 83.33 %) | Loss in the water phase [2] | SMILES |
| --- | --- | --- | --- | --- | --- | --- | --- | --- | --- | --- | --- | --- | --- |
| 49.4% | 50.6% | 85.1% | 14.9% | 92.9% | 7.1% | 95.4% | 4.6% | 97.7% | 2.3% | 98.7% | 1.3% | 1,3% | CCCC(=O)OCC [ethyl butyrate] |
| 76.2% | 23.8% | 100% | 0% | 100% | 0% | 100% | 0% | 100% | 0% | 100% | 0% | 0,0% | CCCCCCCO [heptanol] |
| 100% | 0% | 100% | 0% | 100% | 0% | 100% | 0% | 100% | 0% | 100% | 0% | 0,0% | CCCCCC=O [hexanal] |
| 59.2% | 40.8% | 89.6% | 10.4% | 93.8% | 6.2% | 96.2% | 3.8% | 97.5% | 2.5% | 98.2% | 1.8% | 1,8% | CCCCCCO [hexanol] |

The remaining lines, values behind:

| SMILES | Distribution in [%] between oil phase and water phase after condensation: Oil phase ([1]; NaCl 0%) | Distribution in [%] between oil phase and water phase after condensation: Water phase ([1]; NaCl 0%) | Distribution in [%] between oil phase and water phase after condensation: Oil phase ([1]; NaCl 27.8 %) | Distribution in [%] between oil phase and water phase after condensation: Water phase ([1]; NaCl 27.8 %) | Distribution in [%] between oil phase and water phase after condensation: Oil phase ([1]; NaCl 41.67%) | Distribution in [%] between oil phase and water phase after condensation: Water phase ([1]; NaCl 41.67%) | Distribution in [%] between oil phase and water phase after condensation: Oil phase ([1]; NaCl 55.56 %) | Distribution in [%] between oil phase and water phase after condensation: Water phase ([1]; NaCl 55.56 %) | Distribution in [%] between oil phase and water phase after condensation: Oil phase ([1]; NaCl 69.44 %) | Distribution in [%] between oil phase and water phase after condensation: Water phase ([1]; NaCl 69.44 %) | Distribution in [%] between oil phase and water phase after condensation: Oil phase ([1]; NaCl 83.33 %) | Distribution in [%] between oil phase and water phase after condensation: Water phase ([1]; NaCl 83.33 %) | Loss in the water phase [2] |
| --- | --- | --- | --- | --- | --- | --- | --- | --- | --- | --- | --- | --- | --- |
| CCCCCC(=O)O [caproic acid] | 43.5% | 56.5% | 84.9% | 15.1% | 91.5% | 8.5% | 94.9% | 5.1% | 97% | 3% | 97.9% | 2.1% | 2,1% |
| CC/C=C\CCO [cis-3-hexenol] | 30.6% | 69.4% | 62.8% | 37.2% | 73.3% | 26.7% | 80.5% | 19.5% | 85.6% | 14.4% | 89.2% | 10.8% | 10,8% |
| CC/C=C\CCOC(C)=O [cis-3-hexenyl acetate] | 100% | 0% | 100% | 0% | 100% | 0% | 100% | 0% | 100% | 0% | 100% | 0% | 0,0% |
| CCOC(=O)C(C)CC (stereo not drawn) [ethyl 2-methyl butyrate] | 66.1% | 33.9% | 95% | 5% | 97.9% | 2.1% | 98.8% | 1.2% | 99.7% | 0.3% | 100% | 0% | 0,0% |
| CCOC(C)=O [ethyl acetate] | 10.4% | 89.6% | 20.8% | 79.2% | 30.3% | 69.7% | 33.2% | 66.8% | 38.9% | 61.1% | 45.2% | 54.8% | 54,8% |
